# Target: T1, HNE (human neutrophil elastase) (Homo sapiens, UniProt P08246)
# T1 construct: purchased Calbiochem
# T1 sequence (P08246 30-267): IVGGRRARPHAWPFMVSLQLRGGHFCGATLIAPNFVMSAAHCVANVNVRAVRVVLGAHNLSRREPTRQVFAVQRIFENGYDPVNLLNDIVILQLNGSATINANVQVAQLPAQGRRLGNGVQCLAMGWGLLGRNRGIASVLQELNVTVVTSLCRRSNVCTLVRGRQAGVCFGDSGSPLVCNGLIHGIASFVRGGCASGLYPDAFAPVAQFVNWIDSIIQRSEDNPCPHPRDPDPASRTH
# Test: HNE inhibition assay (fluorogenic substrate cleavage)
# Format: biochemical
# Settings: highest concentration tested 50 µM
# Protocol: Compounds were dissolved in 100% DMSO at 5 mM stock concentrations. […] The HNE inhibition assay was performed in black flat-bottom 96-well microtiter plates. Briefly, a buffer solution containing 200 mM Tris–HCl, pH 7.5, 0.01% bovine serum albumin, and 0.05% Tween-20 and 20 mU/mL of HNE (Calbiochem) was added to wells containing different concentrations of each compound. The reaction was initiated by addition of 25 µM elastase substrate (N-methylsuccinyl-Ala-Ala-Pro-Val-7-amino-4-methylcoumarin, Calbiochem) in a final reaction volume of 100 µl/well. Kinetic measurements were obtained every 30 s for 10 min at 25 °C using a Fluoroskan Ascent FL fluorescence microplate reader (Thermo Electron, MA) with excitation and emission wavelengths set at 355 and 460 nm, respectively. For all compounds tested, the concentration of inhibitor that caused 50% inhibition of the enzymatic reaction (IC50) was calculated by plotting % inhibition versus logarithm of inhibitor concentration (at least six points). The data are presented as the mean values of at least three independent experiments with relative standard deviations of <15%.
row,Compound,"HNE inhibitory activity, result in words"
1,"Cc1cccc(Cn2oc(=O)c(-c3ccccc3)c2C)c1 [Compound 2, 3-Methyl-2-(3-methylbenzyl)-4-phenylisoxazol-5(2H)-one]",completely inactive
2,"Cc1c(-c2ccccc2)c(=O)on1S(=O)(=O)c1ccc(NC(=O)C(C)(C)C)cc1 [Compound 3c, N-(4-((3-methyl-5-oxo-4-phenylisoxazol-2(5H)-yl)sulfonyl)phenyl)pivalamide]",completely inactive
3,"CCCCC(=O)n1oc(=O)c2ccccc21 [Compound 10b, 1-Pentanoylbenzo[c]isoxazol-3(1H)-one]",inactive

# Results, then the compound that gave them:
row,"HNE inhibitory activity, result in words",Compound
1,inactivity,"Cc1c(-c2ccccc2)c(=O)on1S(=O)(=O)c1ccc(O)cc1 [Compound 3a, 2-((4-Hydroxyphenyl)sulfonyl)-3-methyl-4-phenylisoxazol-5(2H)-one]"
2,completely inactive,"O=C(C1CC1)n1oc(=O)cc1-c1ccc([N+](=O)[O-])cc1 [Compound 4t, 2-(Cyclopropanecarbonyl)-3-(4-nitrophenyl)isoxazol-5(2H)-one]"

# Same assay, conditions: mean ± SD of three independent experiments; NA: no inhibitory activity at the highest concentration tested (50 µM)
row,Compound,IC50
1,"Cc1c(-c2ccccc2)c(=O)on1S(=O)(=O)c1ccc(OC(=O)C(C)(C)C)cc1 [Compound 3b, 4-((3-Methyl-5-oxo-4-phenylisoxazol-2(5H)-yl)sulfonyl)phenyl pivalate]",0.059 ± 0.02 µM
2,"Cc1ccc(C(=O)n2oc(=O)c(-c3ccccc3)c2C)cc1 [Compound 4c, 3-Methyl-2-(4-methylbenzoyl)-4-phenylisoxazol-5(2H)-one]",0.23 ± 0.034 µM
3,"Cc1c(-c2ccccc2)c(=O)on1C(=O)c1cccc(S(C)(=O)=O)c1 [Compound 4f, 3-Methyl-2-(3-(methylsulfonyl)benzoyl)-4-phenylisoxazol-5(2H)-one]",29.6 ± 7.2 µM
4,"Cc1c(-c2ccccc2)c(=O)on1C(=O)c1ccc(C#N)cc1 [Compound 4h, 4-(3-Methyl-5-oxo-4-phenyl-2,5-dihydroisoxazole-2-carbonyl)benzonitrile]",11.4 ± 1.9 µM
5,"Cc1cccc(C(=O)n2oc(=O)c(C)c2-c2ccccc2)c1 [Compound 4o, 4-Methyl-2-(3-methylbenzoyl)-3-phenylisoxazol-5(2H)-one]",13.6 ± 2.4 µM
6,"Cc1cccc(C(=O)n2oc(=O)cc2-c2ccccc2)c1 [Compound 4q, 2-(3-Methylbenzoyl)-3-phenylisoxazol-5(2H)-one]",48.7 ± 3.3 µM
7,"CCC(=O)n1oc(=O)c2ccccc21 [Compound 10a, 1-Propionylbenzo[c]isoxazol-3(1H)-one]",25.1 ± 3.6 µM

# Other lines, results leading:
row,IC50,Compound
1,0.35 ± 0.036 µM,"Cc1ccccc1C(=O)n1oc(=O)c(-c2ccccc2)c1C [Compound 4d, 3-Methyl-2-(2-methylbenzoyl)-4-phenylisoxazol-5(2H)-one]"
2,0.2 ± 0.027 µM,"Cc1c(-c2ccccc2)c(=O)on1C(=O)c1cccc(C(F)(F)F)c1 [Compound 4e, 3-Methyl-4-phenyl-2-(3-(trifluoromethyl)benzoyl)isoxazol-5(2H)-one]"
3,6.3 ± 1.4 µM,"Cc1c(-c2ccccc2)c(=O)on1C(=O)c1cccc(C#N)c1 [Compound 4g, 3-(3-Methyl-5-oxo-4-phenyl-2,5-dihydroisoxazole-2-carbonyl)benzonitrile]"
4,1.1 ± 0.14 µM,"Cc1c(-c2ccccc2)n(C(=O)C2CC2)oc1=O [Compound 4p, 2-(Cyclopropanecarbonyl)-4-methyl-3-phenylisoxazol-5(2H)-one]"
5,12.7 ± 2.7 µM,"O=C(C1CC1)n1oc(=O)cc1-c1ccccc1 [Compound 4r, 2-(Cyclopropanecarbonyl)-3-phenylisoxazol-5(2H)-one]"
6,28.6 ± 3.3 µM,"CC(=O)Nc1ccc(-c2cc(=O)on2C(=O)c2cccc(C)c2)cc1 [Compound 4u, N-(4-(2-(3-methylbenzoyl)-5-oxo-2,5-dihydroisoxazol-3-yl)phenyl)acetamide]"

# Test system: not given
# Test: not given
# Settings: not given
row,Compound,melting point
1,"Cc1ccc(C(=O)n2oc(=O)c(-c3ccccc3)c2C)cc1 [Compound 4c, 3-Methyl-2-(4-methylbenzoyl)-4-phenylisoxazol-5(2H)-one]",134 to 136 °C
2,"Cc1c(-c2ccccc2)c(=O)on1C(=O)c1cccc(S(C)(=O)=O)c1 [Compound 4f, 3-Methyl-2-(3-(methylsulfonyl)benzoyl)-4-phenylisoxazol-5(2H)-one]",185 to 186 °C
3,"Cc1c(-c2ccccc2)c(=O)on1C(=O)c1ccc(C#N)cc1 [Compound 4h, 4-(3-Methyl-5-oxo-4-phenyl-2,5-dihydroisoxazole-2-carbonyl)benzonitrile]",178 to 180 °C (dec.)

# Further lines, results first:
row,melting point,Compound
1,50 to 51 °C,"Cc1c(-c2ccccc2)c(=O)on1S(=O)(=O)c1ccc(O)cc1 [Compound 3a, 2-((4-Hydroxyphenyl)sulfonyl)-3-methyl-4-phenylisoxazol-5(2H)-one]"
2,99 to 100 °C,"Cc1ccccc1C(=O)n1oc(=O)c(-c2ccccc2)c1C [Compound 4d, 3-Methyl-2-(2-methylbenzoyl)-4-phenylisoxazol-5(2H)-one]"
3,96 to 97 °C,"Cc1c(-c2ccccc2)c(=O)on1C(=O)c1cccc(C(F)(F)F)c1 [Compound 4e, 3-Methyl-4-phenyl-2-(3-(trifluoromethyl)benzoyl)isoxazol-5(2H)-one]"
4,118 to 119 °C,"Cc1c(-c2ccccc2)c(=O)on1C(=O)c1cccc(C#N)c1 [Compound 4g, 3-(3-Methyl-5-oxo-4-phenyl-2,5-dihydroisoxazole-2-carbonyl)benzonitrile]"

# — PMC6032016, “Synthesis, biological evaluation, and molecular modelling studies of potent human neutrophil elastase (HNE) inhibitors” (Journal of Enzyme Inhibition and Medicinal Chemistry, 2018)
